In experiment [1] the test system is Saccharomyces cerevisiae. As to the kind of experiment: Antifungal activity against yeast AD1-8u expressing Candida albicans CaCdr1p by agar disk diffusion assay. Type of experiment: functional.
Experiment [2] has as its system Saccharomyces cerevisiae. Put plainly: Antifungal activity against yeast AD1-8u expressing Candida albicans CaMdr1p by agar disk diffusion assay. Note: test concentration or dose not given here. It counts as functional.
The subject of experiment [3] is Candida albicans. As to the kind of experiment: Binding affinity to Candida albicans CaMdr1p expressed in yeast AD1-8u.
Experiment [4] deals with Candida albicans. Put plainly: Binding affinity to Candida albicans CaCdr1p expressed in yeast AD1-8u.

Active and inactive are the calls of the source. The rule behind the calls is not given here.
Throughout, for IZ: test concentration or dose not given here.

In the case of `O=C1c2c(O)ccc(O)c2C(=O)c2c(NCCNCCO)ccc(NCCNCCO)c21` [MITOXANTRONE], the “inhibition zone (IZ)” value stood at 0.2 cm in experiment [1] and 0.3 cm in experiment [2]. Besides, the result in experiment [3] was Active. Moreover, in experiment [4], the result was inactive.

Take `COc1ccc(CCN(C)CCCC(C#N)(c2ccc(OC)c(OC)c2)C(C)C)cc1OC` (configuration not stated): the “inhibition zone (IZ)” value in experiment [1] is given as 0.9 cm; in experiment [2], 0 cm. In addition, the result in experiment [3] was inactive. Besides, the result in experiment [4] was Active.

On to `CO[C@H]1/C=C/O[C@@]2(C)Oc3c(C)c(O)c4c(O)c(c(/C=N/N5CCN(C)CC5)c(O)c4c3C2=O)NC(=O)/C(C)=C\C=C\[C@H](C)[C@H](O)[C@@H](C)[C@@H](O)[C@@H](C)[C@H](OC(C)=O)[C@@H]1C` [RIFAMPIN], for which the “inhibition zone (IZ)” value in experiment [1] and in experiment [2] was 0 cm each time. The result in experiment [3] and in experiment [4] was inactive.

Regarding `CON(C)C(=O)Nc1ccc(Cl)c(Cl)c1` [LINURON], the “inhibition zone (IZ)” value was found to be 0.8 cm in experiment [1] and 0.6 cm in experiment [2]. For the same molecule, the outcome in experiment [3] and in experiment [4] was Active.

For the molecule `N#CC(C#N)=NNc1cccc(Cl)c1` [CARBONYL CYANIDE M-CHLOROPHENYLHYDRAZONE], the “inhibition zone (IZ)” value in experiment [1] and in experiment [2] was 0 cm throughout. Further, the result in experiment [3] and in experiment [4] was inactive.

For `COc1cc2c(c(OC)c1OC)-c1ccc(OC)c(=O)cc1[C@@H](NC(C)=O)CC2` [COLCHICINE], the “inhibition zone (IZ)” value in experiment [1] and in experiment [2] was 0 cm in each case. The outcome in experiment [3] and in experiment [4] was inactive.

As to `c1ccc(C(c2ccccc2)(c2ccccc2)c2ncc[nH]2)cc1` [TRITYL IMIDAZOLE], the “inhibition zone (IZ)” value in experiment [1] is listed as 1.3 cm; in experiment [2], 0 cm. Moreover, the outcome in experiment [3] was inactive. The result in experiment [4] was Active.

Take `CN(C)C(=O)Nc1ccc(Cl)c(Cl)c1` [DCMU]: the “inhibition zone (IZ)” value in experiment [1] and in experiment [2] was 0.8 cm throughout. Moreover, the result in experiment [3] and in experiment [4] was Active.
